This note sets out measurements from patent publication US12290521B2, “Methods and materials for identifying and treating BET inhibitor-resistant cancers” (Mayo Foundation for Medical Education and Research, priority 2018, dated 2025).

What all share (type): cell-based, human
Assay [1] deals with DU145 cells. Put plainly: Cell proliferation (MTS assay). Particulars: JQ1 2 μM. How it is done:
(§1) Cell proliferation was measured by using the MTS assay (Promega). Prostate cancer cells (2,000 per well) were seeded in 96-well plates with 100 μL of culture medium. Each well was added with 20 μL of CellTiter 96R AQueous One Solution Reagent (Promega) and absorbance was measured in a microplate reader at 490 nm.
The cells then were treated with vehicle (DMSO), a CBP/p300 inhibitor (CPI-637; iCBP; 20 μM), or a BET inhibitor (JQ1; 2 μM) alone or a combination of CPI-637 and JQ1. After 72 hours, cells were subjected to measurement of cell growth by an MTS assay. In each cell type (EV and F133V), the OD value in each group was normalized by the value in the control (vehicle) group.

For assay [2], the system named is C4-2 cells. Put plainly: Cell proliferation assay (MTS) and trypan blue assay. On the procedure:
CellTiter 96® AQueous One Solution Cell Proliferation Assay (MTS) (Promega) was used to measure cell growth according to the manufacturer's instructions. Briefly, cells were plated in 96-well plates at a density of 2,000 cells per well. At the indicated times, 20 μL of Cell Titer 96R Aqueous One Solution Reagent was added to medium. After incubating for 1 hour at 37° C. in the cell incubator, cell growth was measured in a microplate reader at 490 nm.
Trypan blue assay was performed to measure cell growth according to the manufacturer's instructions. Briefly, cells were plated in 6-well plates at a density of about 5×10^4 to about 1×10^5 cells per well. At the indicated time points, cells were trypsinized and suspended in 1 mL 1×PBS. 100 μL cells and 100 μL trypan blue solution (Sigma-Aldrich) were mixed, and the number of viable cells was measured using the Bio-Rad automated cell counter.
as §1

Assay [3] relates to SPOP and BRD2/3/4. The assay can be described thus: Western blot, co-IP and in vivo ubiquitination assay in 293T cells. Conditions: JQ1 1 μM, 24 hours. How it is done:
To immunoprecipitate the ectopically expressed FLAG-tagged proteins, transfected cells were lysed 24 hours post-transfection in BC100 buffer. The whole-cell lysates were immunoprecipitated with the monoclonal anti-FLAG antibody-conjugated M2 agarose beads (Sigma-Aldrich) at 4° C. overnight. After three washes with lysis buffer, followed by two washes with BC100 buffer, the bound proteins were eluted using FLAG-Peptide (Sigma-Aldrich) prepared in BC100 for 3 hours at 4° C. The eluted protein sample was resolved by SDS-PAGE. To immunoprecipitate the endogenous proteins, cells were lysed with 1× cell lysis buffer (Cell Signaling Technology), and the lysate was centrifuged. The supernatant was precleared with protein A/G beads (Sigma-Aldrich) and incubated with the indicated antibody and protein A/G beads at 4° C. overnight. Beads were washed five times with lysis buffer and resuspended in sample buffer and analyzed by SDS-PAGE.
Cell lysates or immunoprecipitates were subjected to SDS-PAGE, and proteins were transferred to nitrocellulose membranes (GE Healthcare Sciences). The membranes were blocked in Tris-buffered saline (TBS, pH 7.4) containing 5% non-fat milk and 0.1% Tween-20, washed twice in TBS containing 0.1% Tween-20, and incubated with primary antibody overnight at 4° C., followed by secondary antibody for 1 hour at room temperature. The proteins of interest were visualized using ECL chemiluminescence system (Santa Cruz Biotechnology). Densitometry analysis of protein bands was analyzed on the Gel-Pro Analyzer software.
For the in vivo ubiquitination assay, C4-2 cells were transfected with plasmids for HA-Ub, FLAG-BRD4, and other indicated proteins. C ells were treated with 20 μM MG132 for 8 hours before being harvested and lysed with lysis buffer (50 mM Tris-HCl, pH 7.5, 150 mM NaCl, 1% NP40, 0.5% sodium deoxycholate, 1× protease inhibitor cocktail (PIC)). The lysate was subjected to co-immunoprecipitation using anti-FLAG-conjugated agarose beads as described in the Co-IP assay.

SMILES strings stand for the structures. “Also recorded” adds a separate entry of the source.

For the compound `Cc1sc2c(c1C)C(c1ccc(Cl)cc1)=N[C@@H](CC(=O)OC(C)(C)C)c1nnc(C)n1-2` [JQ1], the “sensitivity of cell growth to JQ1” value was “much more sensitive” in assay [1] (DUB3-knockdown DU145 cells versus control knockdown cells); “JQ1 resistance” in assay [1] (SPOP F133V-expressing DU145 cells); “highly resistant” in assay [2] (BRD4 knockout C4-2 cells with BRD2/3 largely depleted, JQ1 up to 500 nM, 24 hours); “JQ1 resistance” in assay [2] (SPOP F133V-expressing C4-2 cells, JQ1 2 μM, MTS). Also, in assay [1] (DUB3-overexpressing DU145 cells), the “resistance of cell growth by DUB3 overexpression” value was “conferred resistance”. The “sensitivity of cell growth to JQ1 after DUB3 knockdown” value in assay [1] (SPOP-F133V cells with DUB3 shRNA) is on record as “sensitized”. The “effect on cell growth” value is on record as “largely impeded” in assay [2] (SPOP-F133V-expressing C4-2 cells, JQ1 0.25 μM every other day) and “largely attenuated” in assay [2] (SPOP-knockdown C4-2 cells, JQ1 0.25 μM every other day). Further, the cell growth result in assay [2] (control (shC / EV) C4-2 cells, JQ1 0.25 μM every other day) is on record as “robustly inhibited; also recorded: inhibited growth”. For the same compound, in assay [3], the SPOP-BRD2/3/4 protein interaction entry is reported as “diminished”. For the same compound, the “SPOP-induced BRD2/3/4 ubiquitination and degradation” value in assay [3] is reported as “partially blocked”.
